Experimental findings from patent US20240139157A1, “Novel Tubulin Polymerization Inhibitor for Cancer Therapy” (Board of Regents, The University of Texas System, priority 2022, published 2024) are described below.

The test system of one data set is MDA-MB-231 cells. Kind of data set: Annexin V assay by flow cytometry (phosphatidylserine externalization). The class given is cell-based. The text has this:
Phosphatidylserine externalization is a cellular process that involves the translocation of phosphatidylserine from the inner leaflet of the cell's plasma membrane to the outer leaflet. The externalization of phosphatidylserine is recognized by other cells as a signal for engulfment and removal without causing inflammation or damage.
The plot illustrated in FIG. 3 was generated by Annexin V assay analyzed by flow cytometry showing the externalization of the phospholipid phosphatidylserine (PS). Treatment of MDA-MB-231 cells with PTA-1 at concentrations of 10 μM and 20 μM for 24 hours induces apoptosis as shown by PS externalization. Each bar represents the average of at least three technical replicates.
Background: Flow cytometry measures light scatter and fluorescence of single cells or particles in a stream.

Another data set concerns Jurkat cell line. Kind of data set: Differential nuclear staining cytotoxicity assay, Jurkat. Type of data set: cell-based. The conditions noted are these: Homo sapiens, read-out: CC50 (50% cytotoxic concentration). The text has this: In this illustrative example, PTA-1 can be identified through compound screening by performing differential nuclear staining assay on acute lymphoblastic leukemia CEM T-cell line. Differential nuclear staining assay measures cell viability using Hoechst 33342 fluorescent stain and propidium iodide dyes that stain all nuclei and dead cell nuclei. With reference now to FIG. 2, a table for evaluating cytotoxicity of PTA-1 on different cell lines is depicted in accordance with an illustrative embodiment. In FIG. 2, PTA-1 with chemical structure 100 shown in FIG. 1 is tested to determine cytotoxic activities of PTA-1 on different cell lines. In table 200, column 202 indicates the type of cells that are used to test cytotoxic activities of PTA-1, column 204 indicates the cell line used to test cytotoxic activities of PTA-1, column 206 indicates the CC50 values for different cell lines, and column 208 indicates the length of time that different cell lines are exposed to PTA-1. […] In this illustrative example, a lower CC50 value for a cell line indicates a higher level of PTA-1 cytotoxicity, meaning that PTA-1 is more toxic to the cell line.

Data set [1] in a line: Differential nuclear staining cytotoxicity assay, A549. Type of data set: cell-based. The conditions noted are these: human; CC50 in non-cancerous cells divided by CC50 in A549; read-out: Selective cytotoxicity index (SCI). An excerpt:
(§1) In this illustrative example, PTA-1 can be identified through compound screening by performing differential nuclear staining assay on acute lymphoblastic leukemia CEM T-cell line. Differential nuclear staining assay measures cell viability using Hoechst 33342 fluorescent stain and propidium iodide dyes that stain all nuclei and dead cell nuclei.
(§2) With reference now to FIG. 2, a table for evaluating cytotoxicity of PTA-1 on different cell lines is depicted in accordance with an illustrative embodiment. In FIG. 2, PTA-1 with chemical structure 100 shown in FIG. 1 is tested to determine cytotoxic activities of PTA-1 on different cell lines.
(§3) In table 200, column 202 indicates the type of cells that are used to test cytotoxic activities of PTA-1, column 204 indicates the cell line used to test cytotoxic activities of PTA-1, column 206 indicates the CC50 values for different cell lines, and column 208 indicates the length of time that different cell lines are exposed to PTA-1. […]
(§4) In this illustrative example, the selective cytotoxicity index value is used to determine if a compound has activity preferentially toward cancer cells. […] The selective cytotoxicity index (SCI) value is calculated by dividing the CC50 of the compound in non-cancerous cells (HS27 human fibroblasts or MCF-10A breast epithelial cells) by the CC50 in cancer cells. […]

The test system of data set [2] is A549 cell line for lung cancer. The description is as above. Type of data set: cell-based. The conditions noted are these: A549, among all cancerous cell lines.
From the text: as §1, §2, §3, §4

Data set [3] is described as follows: Differential nuclear staining cytotoxicity assay, MDA-MB-231. The note with it: human; CC50 in MCF10A divided by CC50 in MDA-MB-231; read-out: Selective cytotoxicity index (SCI). Type of data set: cell-based.
From the text: as §1, §2, §3, §4

The subject of another data set is MDA-MB-231 cell line. The data set is described as above. Type of data set: cell-based. The note with it: MDA-MB-231, among all cancerous cell lines.
From the text: as §1, §2, §3, §4

The test system of data set [4] is MCF10A cell line (non-cancerous breast epithelial cells). Kind of data set: Differential nuclear staining cytotoxicity assay, MCF10A. Type of data set: cell-based. The note with it: MCF10A non-cancerous cell line vs cancerous lines.
From the text: as §1, §2, §3, §4

Data set [5] has as its system HS27 human fibroblasts (non-cancerous). Briefly: Differential nuclear staining cytotoxicity assay, HS27. The conditions noted are these: HS27 non-cancerous cell line vs cancerous lines. The class given is cell-based.
From the text: as §1, §2, §3, §4

The nature of data set [6]: Differential nuclear staining cytotoxicity assay, NALM6. The note with it: human; CC50 in non-cancerous cells divided by CC50 in NALM6; read-out: Selective cytotoxicity index (SCI). Type of data set: cell-based.
From the text: as §1, §2, §3, §4

Data set [7] has as its system caspase-3 in MDA-MB-231 cells. Kind of data set: Caspase-3 activation, NucView 488 substrate, flow cytometry. The class given is cell-based. An excerpt: FIG. 4 depicts a plot illustrating PTA-1 induced caspase-3 activation in accordance with an illustrative embodiment. In FIG. 4, the induction of apoptosis from PTA-1 is corroborated by detecting the activation of the enzyme caspase-3. The fluorogenic reagent NucView 488 caspase-3 substrate was used to detect the activation of caspase 3 via flow cytometry. […] The average of 3 replicates is represented by each bar.
Caspase enzymes are activated during apoptosis and eventually result in DNA cleavage. In this example, caspase-3 is activated after exposure of the MDA-MB-231 cells at a concentration of 10 μM and 20 μM of PTA-1. […] The data shown in FIG. 4 corroborate the induction of apoptosis as the mechanism of cell death.

For the next data set, the system named is MDA-MB-231 cell cycle. Briefly: Cell cycle analysis. The class given is cell-based. The text has this:
FIGS. 5A-5D show the percentages of cells that are affected in different phase after treatment of PTA-1.
FIGS. 5A-5D illustrate how PTA-1 alters the progression of the MDA-MB-231 cell cycle. Etoposide is used as a positive control. FIG. 5A illustrates PTA-1 induced DNA fragmentation as denoted in the sub G0/G1 phase.

The test system of data set [8] is microtubules and microfilaments of MDA-MB-231 cells. Briefly: Cytoskeleton imaging by fluorescence microscopy. The note with it: 10 μM, 4 hours. Type of data set: cell-based. The text has this: FIG. 8 illustrates alterations in cytoskeletal structures of MDA-MB-231 cells in response to treatment with PTA-1 in accordance with an illustrative embodiment. To test the hypothesis that PTA-1 acts as a tubulin inhibitor, we tested if it could cause alterations in the microtubule organization of MDA-MB-231 cells.
Disruption of cellular microtubules of MDA-MB-231 cells can be assessed by imaging microtubules using fluorescence microscopy.

A further data set has as its system tubulin. Kind of data set: Tubulin polymerization kinetics (absorbance at 340 nm). Type of data set: biochemical. The text has this: FIG. 9 depicts a graph illustrating tubulin polymerization of cells treated with PTA-1 in accordance with an illustrative embodiment. Graph 900 illustrates the kinetic curves of four different treatments for tubulin polymerization.
In this illustrative example, absorbance is directly correlated with tubulin polymerization. Therefore, if polymerization happens, there is an increase in the absorbance at 340 nm. […] In graph 900 tubulin polymerization can be clearly observed from the increasing absorbance after treatment with PTX. In this example, tubulin polymerization for cells treated with PTX drops immediately after 10 minutes.

Structures are written as SMILES.

In the case of `OO` [H2O2, reference compound], in the data set on MDA-MB-231 cells (positive control), the “Cell population with phosphatidylserine externalization” value was 49.9%.
For the molecule `COc1ccc(-c2cnn(CC(=O)Nc3cnn(C)n3)c2)cc1C(F)(F)F` [PTA-1, 2-{4-[4-methoxy-3-(trifluoromethyl)phenyl]-1H-pyrazol-1-yl}-N-(2-methyl-2H-1,2,3-triazol-4-yl)acetamide], in the data set with Jurkat cell line, the CC50 is 320 nM. Further, the values for the selectivity ratio in [1], in data set [3] and in data set [6] were 105, 4.73 and 8.65, respectively. For the same molecule, the “Sensitivity to PTA-1 (CC50 comparison)” value in data set [2] is recorded as “most sensitive”; in the data set on MDA-MB-231 cell line, “least sensitive”; in data set [4], “significantly lower sensitivity”; in data set [5], “significantly lower sensitivity”. In addition, the “Cell population with phosphatidylserine externalization” value in the data set on MDA-MB-231 cells (10 μM, 24 hours) was 59.4%; with MDA-MB-231 cells (20 μM, 24 hours), 59.7%. Besides, the Caspase-3 activation result in data set [7] (10 μM) and in data set [7] (20 μM) was “significantly induced the activation of Caspase 3” in each case. Also, the “Cells in the G2/M phase” value in the data set on MDA-MB-231 cell cycle (1.25 μM) came out at 53.25%; in the data set with MDA-MB-231 cell cycle (2.5 μM), 71.5%; with MDA-MB-231 cell cycle (5 μM), 66.47%. Also, the “Cells in the S phase” value is on record as 19.8% with MDA-MB-231 cell cycle (1.25 μM), 15.34% with MDA-MB-231 cell cycle (2.5 μM) and 24.6% in the data set on MDA-MB-231 cell cycle (5 μM). Besides, the “DNA fragmentation (sub G0/G1 phase) vs DMSO and untreated” value with MDA-MB-231 cell cycle (1.25 μM), in the data set on MDA-MB-231 cell cycle (2.5 μM) and in the data set on MDA-MB-231 cell cycle (5 μM) was “significantly higher rates of DNA fragmentations” each time. For the same molecule, in the data set on MDA-MB-231 cell cycle (different concentrations), the “Cells in the G0/G1 phase” value was “did not result in a higher percentage of cells in the G0/G1 phase”. The “Microfilament structure (phalloidin-Alexa-568 staining)” value in data set [8] is “remained unaltered”. Besides, the “Microtubule organization (α-tubulin-Alexa-488 staining)” value in data set [8] is “disrupts the microtubule organization”. The “Absorbance (tubulin polymerization)” value with tubulin (340 nm, after 60 minutes of treatment, DMSO 0.3702) was found to be 0.3247. In the data set on tubulin (absorbance at 340 nm), the “Duration of nucleation phase (absorbance starts increasing)” value is recorded as “four”. The “Kinetic curve of tubulin polymerization compared with DMSO” value with tubulin (absorbance at 340 nm) is on record as “never reached the absorbance values of cells treated with DMSO”. Besides, in the data set on tubulin (absorbance at 340 nm), the “Time to reach steady state of tubulin polymerization” value worked out at 20 min.
With `CC[C@]1(O)C[C@@H]2CN(CCc3c([nH]c4ccccc34)[C@@](C(=O)OC)(c3cc4c(cc3OC)N(C)[C@H]3[C@@](O)(C(=O)OC)[C@H](OC(C)=O)[C@]5(CC)C=CCN6CC[C@]43[C@@H]65)C2)C1` [Vinblastine, reference compound], in the data set on tubulin (absorbance at 340 nm), the “Duration of nucleation phase (absorbance starts increasing)” value is reported as “four” and the “Kinetic curve of tubulin polymerization compared with DMSO” value was “never reached the absorbance values of cells treated with DMSO”.
Take `COc1cc([C@@H]2c3cc4c(cc3[C@@H](O[C@@H]3O[C@@H]5CO[C@@H](C)O[C@H]5[C@H](O)[C@H]3O)[C@H]3COC(=O)[C@H]23)OCO4)cc(OC)c1O` [etoposide, reference compound]: in the data set on MDA-MB-231 cell cycle (positive control), the “Cells in the G2/M phase” value came out at 15.4% and the “Cells with DNA fragmentation (sub G0/G1 phase)” value was found to be 28.6%.
On to `CC(=O)O[C@H]1C(=O)[C@@]2(C)[C@H]([C@H](OC(=O)c3ccccc3)[C@]3(O)C[C@H](OC(=O)[C@H](O)[C@@H](NC(=O)c4ccccc4)c4ccccc4)C(C)=C1C3(C)C)[C@]1(OC(C)=O)CO[C@@H]1C[C@@H]2O` [paclitaxel, reference compound], for which, in the data set on tubulin (absorbance at 340 nm), the “Growth phase of tubulin polymerization” value is listed as “started immediately” and the “Time after which tubulin polymerization drops” value is 10 min.
